Results reported in patent US6617439B1, “C8-substituted purine nucleotide analogs” (Bar-Ilan University, priority 2000, dated 2003).
Entries after “also recorded” stand apart in the source; their conditions may differ. One block for each molecule: values may come before it.

What was measured:
NTPDase [1] = biological target: T1, NTPDase (Bos taurus, UniProt O18956); assay: Resistance to hydrolysis by NTPDase (malachite green phosphate release); assay type: biochemical, bovine; parameters: To reduce potential artifacts resulting from the solubilisation of NTPDase by detergents, a particulate fraction (prepared as described above) was used; from tissue; host or cells: bovine spleen particulate fraction; settings: 100 μM analog, 37° C., 7 min, 1.9 μg protein
T1 sequence (O18956 1-513): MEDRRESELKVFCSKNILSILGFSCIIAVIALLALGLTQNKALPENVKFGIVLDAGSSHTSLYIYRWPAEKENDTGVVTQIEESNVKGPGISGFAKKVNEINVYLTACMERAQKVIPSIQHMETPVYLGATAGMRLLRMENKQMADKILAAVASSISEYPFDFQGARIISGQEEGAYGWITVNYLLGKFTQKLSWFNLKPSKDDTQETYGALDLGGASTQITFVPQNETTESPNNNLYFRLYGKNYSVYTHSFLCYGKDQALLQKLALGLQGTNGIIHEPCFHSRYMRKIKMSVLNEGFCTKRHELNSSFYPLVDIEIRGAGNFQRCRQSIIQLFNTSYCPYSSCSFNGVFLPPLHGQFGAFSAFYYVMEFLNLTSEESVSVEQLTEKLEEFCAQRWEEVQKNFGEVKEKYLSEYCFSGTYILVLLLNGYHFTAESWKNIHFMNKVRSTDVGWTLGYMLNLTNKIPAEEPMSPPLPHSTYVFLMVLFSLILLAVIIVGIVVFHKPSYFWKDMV
Protocol: Isolation of particulate fractions. Experiments were carried out with a particulate fraction obtained from bovine spleen according to the method of Sévigny et al. (37). Briefly, bovine spleens were cut in small pieces and homogenized (15-20%) with a Polytron in Tris-saline buffer supplemented with SBTI and PMSF as protease inhibitors. After filtration with cheesecloth and centrifugation at 600 g the supernatant is centrifuged at 22,000 g for 90 min, and the resulting pellet is suspended in bicarbonate buffer and loaded on a sucrose cushion (40%) and centrifuged for two hours at 100,000 g. The fraction floating on the cushion is harvested in five volumes of bicarbonate buffer. The pellet is suspended in Tris buffer/glycerol 7.5% and kept at −20° C.
(§1) NTPDase assays. Enzyme activity was routinely measured by the release of inorganic phosphorus with the malachite green colorimetric assay (61). Resistance to hydrolysis was measured at 37° C. in 1 ml of the following incubation medium: 8 mM CaCl2, 5 mM tetramisole, 50 mM Tris base, 50 mM imidazole, buffered at pH 7.6, and 100 μM of either ATP or its analogs. […] In both cases the reaction was started by the addition of 1.9 μg of the enzyme preparation and stopped after 7 min with 250 μL of the malachite green reagent. […] Reactions were performed in the same incubation buffer, as previously described and were started by the addition of non-saturating ATP concentrations. Protein concentration was determined with the Bradford microplate assay using bovine serum albumin as a standard of reference (62).
To reduce potential artifacts resulting from the solubilisation of NTPDase by detergents, a particulate fraction (prepared as described above) was used. […] Also, possible alkaline phosphatase activity was inhibited by tetramisole added to the assays.

NTPDase [2] = biological target: T1, NTPDase; assay: NTPDase inhibition, ATP as substrate (Dixon plots); assay type: biochemical, bovine
Protocol: as §1, with “Isolation of particulate fractions. […] Briefly, bovine spleens were cut in small pieces and homogenized (15-20%) with a Polytron in Tris-saline buffer supplemented with SBTI and PMSF as protease inhibitors. After filtration with cheesecloth and centrifugation at 600 g the supernatant is centrifuged at 22,000 g for 90 min, and the resulting pellet is suspended in bicarbonate buffer and loaded on a sucrose cushion (40%) and centrifuged for two hours at 100,000 g. The fraction floating on the cushion is harvested in five volumes of bicarbonate buffer. […] NTPDase” for “NTPDase”, “(62). […]” for “(62).”

rat astrocytes = settings: cited from earlier work
P2Y-purinoceptor = assay: P2Y-receptor assay, intact mesenteric bed, ATP-induced vasodilation; parameters: species or system guinea pig; settings: 7 μM infusion, ATP 0.1-10000 pmol
Protocol: (§2) Surgical Procedures. Dunkin-Hartley guinea pigs (300-350 g) of either sex were sacrificed by cerival dislocation according to the Canadian Council on Aminal Care. The guinea pig mesentery was prepared as described by Berthiaume et al (63). […] To isolate the mesenteric bed from the intestine, the mesentery was perfused (2 ml/min, for 5 min) via the mesenteric artery with a Krebs solution containing heparin (100 U/ml). The mesentery was then separated by cutting close to the intestine. A resting period of 60 min was then allowed during which the guinea pig mesenteric bed was perfused (2 ml/min) with a warmed (37° C.) and gassed Krebs solution (95% O2 and 5% CO2) containing indomethacin (5 μM), as described earlier. In all the assays, perfusion pressure was increased to obtain a flow rate of 6 ml min^−1. Response of mesenteric bed, precontracted with noradrenaline (200 μM) in 0.9% saline solution, to the different drugs, was measured with a pressure transducer (Statham, model P-23AC) and recorded on a Grass physiograph (model 79D).
P2Y-receptor assays. Intact mesenteric bed vessels were precontracted with noradrenaline (200 μM). […] A resting period between each ATP injection was allowed to return to baseline, as described above. Blood vessel reactivity was assessed by a bolus injection of 3 nmol of NaNP. Response of the endothelium layer was confirmed by injection of NK-1 (100 pmol).

P2X-purinoceptor = assay: P2X-receptor assay, endothelium-denuded mesenteric bed; parameters: species or system guinea pig; settings: for P2X-R effect: variation of perfusion pressure: bolus 0.1-1000 pmol, denuded mesenteric bed precontracted with noradrenaline
Protocol: as §2
P2X-receptor assays. Guinea pig mesenteric bed was denuded from its endothelium layer by using 20 mM of CHAPS in PBS (63). Briefly, the CHAPS solution was infused for 45 sec, followed by a resting period of 30 min. Finally a second 45 sec infusion of 20 mM CHAPS was carried out. Blood vessels were then precontracted as earlier described. The efficiency of the endothelium removal technique was assessed by an intra-arterial bolus injection of 100 pmol of NK-1 in PBS. Reactivity of the media layer was confirmed by bolus injection of 3 nmol of NaNP (sodium nitroprussiate) in PBS. […] Variation of perfusion pressure were measured. Between each injection of 8-BuS-ATP a resting period was allowed to allow the return of pressure to baseline (i.e. precontracted pressure).

P2Y1 receptor = settings: cited from earlier work

Molecule: CCCCNc1nc2c(N)ncnc2n1[C@@H]1O[C@H](COP(=O)(O)OP(=O)(O)OP(=O)(O)O)[C@@H](O)[C@H]1O [compound 7, 8-BuNH-ATP]
hydrolysis by NTPDase / resistance to hydrolysis (NTPDase [1]): a level of hydrolysis

Molecule: CCCCOc1nc2c(N)ncnc2n1[C@@H]1O[C@H](COP(=O)(O)OP(=O)(O)OP(=O)(O)O)[C@@H](O)[C@H]1O [compound 8, 8-BuO-ATP]
hydrolysis by NTPDase / resistance to hydrolysis (NTPDase [1]): a level of hydrolysis

Molecule: CCCCSc1nc2c(N)ncnc2n1C1OC(COP(=O)(O)OP(=O)(O)OP(=O)(O)O)C(O)C1O (centres unmarked) [6e, 8-BuS-ATP]
effect on [Ca2+]i level (rat astrocytes): no effect | effect on vasodilatory response to ATP (P2Y-R) (P2Y-purinoceptor): does not interact | effect on vasodilatory response to ATP (P2Y-R) (P2Y-purinoceptor; listed as 8-BuS-ATP): unmodified; also recorded: No significant difference | P2X-R effect: variation of perfusion pressure (P2X-purinoceptor): does not interact | P2X-R effect: variation of perfusion pressure (P2X-purinoceptor; listed as 8-BuS-ATP): not able to initiate any P2X-R effect; also recorded: No variations of perfusion pressure | agonism at P2Y1 receptor (P2Y1 receptor): poor agonist

Molecule: [Star^9,Met(O2)^11]SP [NK-1, reference compound]
vascular response (vasodilation) in denuded mesentery (P2X-purinoceptor; 100 pmol, vessels precontracted with 200 μM noradrenaline): significant response

The next lines start with results.

hydrolysis by NTPDase / resistance to hydrolysis (NTPDase [1]): a level of hydrolysis
Molecule: CCSc1nc2c(N)ncnc2n1[C@@H]1O[C@H](COP(=O)(O)OP(=O)(O)OP(=O)(O)O)[C@@H](O)[C@H]1O [6c, 8-(Thioethyl)-adenosine 5′-triphosphate]

hydrolysis by NTPDase / resistance to hydrolysis (NTPDase [1]): a level of hydrolysis
Molecule: Nc1ncnc2c1nc(Br)n2[C@@H]1O[C@H](COP(=O)(O)OP(=O)(O)OP(=O)(O)O)[C@@H](O)[C@H]1O [8-Br-ATP, reference compound]

potency / affinity as NTPDase inhibitor, in words (NTPDase [2]): good inhibitors
Molecule: Nc1ncnc2c1nc(SC1CCCCCC1)n2C1OC(COP(=O)(O)OP(=O)(O)OP(=O)(O)O)C(O)C1O (centres unmarked) [6a, 8-(Thiocycloheptyl)-adenosine 5′-triphosphate]
hydrolysis by NTPDase / resistance to hydrolysis (NTPDase [1]): more resistant to hydrolysis; also recorded: resistant to hydrolysis | type of NTPDase inhibition (NTPDase [2]; Lineweaver-Burk / Dixon representation): mixed type inhibitors; also recorded: mixed types of inhibition
